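Tested at 5 concentrations; 48 h exposure; 96-well plates; endpoints linearly interpolated, else capped at highest concentration. At the TGI there is no net growth.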
How the values were obtained:
Assay in all cases: DTP human tumour cell line panel, 48 h
HOP-18 NSCLC = tested on: HOP-18 NSCLC
SK-OV-3 ovarian = tested on: SK-OV-3 ovarian
NCI-H23 lung = tested on: NCI-H23 lung
M19-MEL melanoma = tested on: M19-MEL melanoma
DMS 273 small cell lung = tested on: DMS 273 small cell lung
DMS 114 small cell lung = tested on: DMS 114 small cell lung
SK-MEL-2 melanoma = tested on: SK-MEL-2 melanoma
DLD-1 colon = tested on: DLD-1 colon
SNB-75 CNS = tested on: SNB-75 CNS
LXFL 529 NSCLC = tested on: LXFL 529 NSCLC
XF 498 CNS = tested on: XF 498 CNS
SNB-78 CNS = tested on: SNB-78 CNS
HS 578T breast = tested on: HS 578T breast

SMILES	TGI (HOP-18 NSCLC)	TGI (SK-OV-3 ovarian)	TGI (NCI-H23 lung)	TGI (M19-MEL melanoma)	TGI (DMS 273 small cell lung)	TGI (DMS 114 small cell lung)	TGI (SK-MEL-2 melanoma)	TGI (DLD-1 colon)	TGI (SNB-75 CNS)	TGI (LXFL 529 NSCLC)	TGI (XF 498 CNS)	TGI (SNB-78 CNS)	TGI (HS 578T breast)
CC([C@H]1CCC2C3CCC4CC5(CC[C@]4(C)C3CC[C@@]21C)c1ccccc1C(=O)N5C)N(C)C (some centres not stated)	> 100 µM	> 100 µM	> 100 µM	78.3 µM	75.4 µM	> 100 µM	42.9 µM	> 100 µM	74.1 µM	> 100 µM	–	–	–
CC(Oc1ccc(OCC2CCCCC2)cc1)C(=O)O (configuration not stated)	> 100 µM	> 100 µM	> 100 µM	> 100 µM	> 100 µM	> 100 µM	> 100 µM	> 100 µM	> 100 µM	> 100 µM	> 100 µM	> 100 µM	–
CC(C)(C)OC(=O)NC(Cc1ccc(OCc2ccccc2)cn1)C(=O)N1CCSCC1 (configuration not stated)	–	> 100 µM	> 100 µM	–	–	–	> 100 µM	–	76.5 µM	–	–	–	> 100 µM
O=C1/C(=C/c2cccs2)NC(=S)N1CN1CCOCC1	–	> 100 µM	> 100 µM	–	–	–	> 100 µM	–	> 100 µM	–	–	–	> 100 µM
COc1cc2c(cc1OC)C(Cc1ccccc1CCCl)=NCC2	–	> 100 µM	> 100 µM	–	–	–	> 100 µM	–	> 100 µM	–	–	–	> 100 µM
O=c1[nH]c2ccc(CC(=S)N3CCN(c4ccccc4)CC3)cc2o1	–	> 100 µM	> 100 µM	–	–	–	> 100 µM	–	> 94.7 µM	–	–	–	> 100 µM
Cc1ccc(/C=N/NC2=NCCN2)s1	–	> 100 µM	> 100 µM	–	–	–	> 100 µM	–	> 100 µM	–	–	–	> 100 µM
O=C(CCc1ccccc1CO)NCCc1ccccc1	–	> 100 µM	> 100 µM	–	–	–	> 100 µM	–	> 100 µM	–	–	–	> 100 µM
N#C[C@@]12CCCC(=O)[C@@H]1[C@H]1CCC[C@H]12	–	32.8 µM	35 µM	–	–	–	43.3 µM	–	36 µM	–	–	–	> 100 µM
Cc1ccc(Nc2nc(=O)[nH]c(=O)[nH]2)cc1N=[N+]=[N-]	–	> 100 µM	> 100 µM	–	–	–	> 100 µM	–	> 100 µM	–	–	–	> 100 µM
O=C1OC(C2OC(=O)c3cc(O)c(O)c(O)c3-c3c(O)c(O)c4oc(=O)c5c(c(O)c(O)c6oc(=O)c3c4c65)-c3c(cc(O)c(O)c3O)C(=O)OCC2O)C2OC(=O)c3c(c(O)c(O)c(O)c3[C@H]2O)-c2c1cc(O)c(O)c2O (some centres not stated)	–	> 100 µM	41.2 µM	–	–	–	> 100 µM	–	63.7 µM	–	–	–	> 100 µM
OCCN=C1c2ccccc2C2C(c3ccccc31)C1c3ccccc3C(=NCCO)c3ccccc3C21 (configuration not stated)	–	61.5 µM	> 100 µM	–	–	–	30.5 µM	–	65.9 µM	–	–	–	45.7 µM
Cc1ccc2cccc3c2c1CC1(C3=O)S(=O)(=O)OCCOS1(=O)=O	–	> 100 µM	> 100 µM	–	–	–	> 100 µM	–	> 100 µM	–	–	–	> 100 µM

Source: PubChem BioAssay (NCI)
